Assay results taken from the SangsterLogP compilation.

What was measured:
[1] = method code SF, from DOI: 10.1002/ps.2780140605

SMILES | logP [1] | logP
C#CCC(O)(c1cccnc1)c1ccc(Cl)c(Cl)c1 (stereo not drawn) | 2.42 | –
C#CCC(O)c1cccnc1 (stereo not drawn) | – | 1.21
C#CCC(O)(c1cccnc1)c1ccc2ccccc2c1 (stereo not drawn) | 2.14 | –
C#CCC(O)(c1ccc(C(C)C)cc1)c1cccnc1 (stereo not drawn) | 2.16 | –

Continued, values first:

logP [1] | logP | SMILES
1.29 | – | C#CCC(O)(CC#C)c1cccnc1
1.78 | – | C#CCC(O)(c1ccc(F)cc1)c1cccnc1 (stereo not drawn)
2.09 | – | C#CCC(O)(c1cccnc1)C1CCCCC1 (stereo not drawn)
2.29 | – | C#CCC(O)(c1cccnc1)c1ccc(Cl)cc1Cl (stereo not drawn)
